The supplement of paper PMC10307832

Experiments:
Experiment in all cases: relative viability (nuclei count vs DMSO), 5 days (fraction); higher = more cells survive
Afatinib + Pictilisib = compound: CN(C)C/C=C/C(=O)Nc1cc2c(Nc3ccc(F)c(Cl)c3)ncnc2cc1O[C@H]1CCOC1 [Afatinib] + CS(=O)(=O)N1CCN(Cc2cc3nc(-c4cccc5[nH]ncc45)nc(N4CCOCC4)c3s2)CC1 [Pictilisib] (partner 1 µM)
Method in brief: (§1)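 A single step with final 0.05% Triton X-100, 1% formaldehyde and 1 ug/ml Hoechst fixed the cells and stained nuclei 5 days after treatment. Lung cancer cell lines in 1536-well plates had been treated by pin tool the day after seeding with one drug alone or a fixed anchor-drug dose plus five library-drug doses (not always all listed) in √10 steps, and nuclei were counted on 4× images. Relative viability is the ratio of nuclei in treated wells to nuclei in vehicle wells, taken as the median of duplicate plates.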

Afatinib + Alpelisib = compound: CN(C)C/C=C/C(=O)Nc1cc2c(Nc3ccc(F)c(Cl)c3)ncnc2cc1O[C@H]1CCOC1 [Afatinib] + Cc1nc(NC(=O)N2CCC[C@H]2C(N)=O)sc1-c1ccnc(C(C)(C)C(F)(F)F)c1 [Alpelisib] (partner 2 µM)
Method in brief: as §1

Afatinib + Decitabine = compound: CN(C)C/C=C/C(=O)Nc1cc2c(Nc3ccc(F)c(Cl)c3)ncnc2cc1O[C@H]1CCOC1 [Afatinib] + Nc1ncn([C@H]2C[C@H](O)[C@@H](CO)O2)c(=O)n1 [Decitabine] (partner 2 µM)
Method in brief: as §1

Afatinib + Linsitinib = compound: CN(C)C/C=C/C(=O)Nc1cc2c(Nc3ccc(F)c(Cl)c3)ncnc2cc1O[C@H]1CCOC1 [Afatinib] + C[C@]1(O)C[C@@H](c2nc(-c3ccc4ccc(-c5ccccc5)nc4c3)c3c(N)nccn32)C1 [Linsitinib] (partner 1 µM)
Method in brief: as §1

Cell Line | relative viability (Afatinib + Pictilisib; first compound 0.005 µM) | relative viability (Afatinib + Pictilisib; first compound 0.01581 µM) | relative viability (Afatinib + Pictilisib; first compound 0.05 µM) | relative viability (Afatinib + Pictilisib; first compound 0.1581 µM) | relative viability (Afatinib + Pictilisib; first compound 0.5 µM) | relative viability (Afatinib + Alpelisib; first compound 0.005 µM) | relative viability (Afatinib + Alpelisib; first compound 0.01581 µM) | relative viability (Afatinib + Alpelisib; first compound 0.05 µM) | relative viability (Afatinib + Alpelisib; first compound 0.1581 µM) | relative viability (Afatinib + Alpelisib; first compound 0.5 µM) | relative viability (Afatinib + Decitabine; first compound 0.005 µM) | relative viability (Afatinib + Decitabine; first compound 0.01581 µM) | relative viability (Afatinib + Decitabine; first compound 0.05 µM) | relative viability (Afatinib + Decitabine; first compound 0.1581 µM) | relative viability (Afatinib + Decitabine; first compound 0.5 µM) | relative viability (Afatinib + Linsitinib; first compound 0.005 µM) | relative viability (Afatinib + Linsitinib; first compound 0.01581 µM) | relative viability (Afatinib + Linsitinib; first compound 0.05 µM) | relative viability (Afatinib + Linsitinib; first compound 0.1581 µM) | relative viability (Afatinib + Linsitinib; first compound 0.5 µM)
HCC-78 | 0.207 | 0.189 | 0.19 | 0.218 | 0.173 | 0.373 | 0.345 | 0.273 | 0.228 | 0.217 | 0.726 | 0.607 | 0.616 | 0.635 | 0.651 | 0.53 | 0.482 | 0.436 | 0.413 | 0.395
NCI-H2085 | 0.486 | 0.438 | 0.459 | 0.494 | 0.435 | 0.944 | 0.873 | 0.812 | 0.659 | 0.803 | 0.577 | 0.522 | 0.519 | 0.517 | 0.515 | 0.726 | 0.773 | 0.769 | 0.417 | 0.675
PC-14 | 0.109 | 0.0863 | 0.108 | 0.0958 | 0.0837 | 0.169 | 0.15 | 0.137 | 0.127 | 0.163 | 0.14 | 0.17 | 0.137 | 0.171 | 0.218 | 0.271 | 0.255 | 0.176 | 0.237 | 0.23
NCI-H2342 | – | – | – | – | – | – | – | – | – | – | 0.706 | 0.698 | 0.718 | 0.569 | 0.573 | – | – | – | – | –
A-427 | 0.729 | 0.684 | 0.587 | 0.774 | 0.658 | 1.04 | 1.11 | 1.18 | 0.973 | 1.09 | 0.556 | 0.594 | 0.551 | 0.502 | 0.511 | 1.1 | 1.15 | 1.11 | 1.08 | 1.07
H3255 | 0.173 | 0.118 | 0.132 | 0.11 | 0.104 | 0.209 | 0.135 | 0.168 | 0.123 | 0.123 | 0.256 | 0.167 | 0.179 | 0.189 | 0.172 | 0.197 | 0.124 | 0.149 | 0.123 | 0.138
HCC-44 | 0.619 | 0.619 | 0.638 | 0.514 | 0.533 | 0.803 | 0.854 | 0.727 | 0.728 | 0.872 | 0.99 | 0.96 | 0.981 | 0.968 | 1.07 | 0.63 | 0.659 | 0.702 | 0.593 | 0.669
NCI-H1734 | 0.479 | 0.467 | 0.486 | 0.438 | 0.416 | 0.675 | 0.747 | 0.735 | 0.697 | 0.671 | 0.542 | 0.538 | 0.47 | 0.491 | 0.489 | 0.9 | 0.75 | 0.931 | 0.865 | 0.771
NCI-H2228 | 0.343 | 0.45 | 0.381 | – | 0.279 | 0.74 | 0.78 | 0.688 | – | 0.589 | – | – | – | – | – | 0.604 | 0.778 | 0.631 | – | 0.502
ABC-1 | 0.816 | 0.52 | 0.679 | 0.578 | 0.762 | 1.26 | 0.856 | 0.947 | 0.931 | 0.988 | 1.09 | – | 1.26 | 0.928 | 1.05 | 0.851 | 0.647 | 0.788 | 0.466 | 0.584
COR-L23 | 0.689 | 0.762 | 0.854 | 0.955 | 0.853 | 0.922 | 0.728 | 0.935 | 0.685 | 0.752 | 0.504 | 0.436 | 0.468 | 0.47 | 0.529 | 0.874 | 0.894 | 0.883 | 0.825 | 0.848
NCI-H661 | 0.386 | 0.301 | 0.318 | 0.313 | 0.249 | 0.666 | 0.389 | 0.475 | 0.398 | 0.349 | 0.502 | 0.428 | 0.44 | 0.391 | 0.401 | 0.669 | 0.531 | 0.516 | 0.375 | 0.294
ChaGo-K-1 | 0.893 | 0.45 | 0.757 | 0.583 | 0.88 | – | – | – | – | – | 0.558 | 0.538 | 0.525 | 0.525 | 0.469 | – | – | – | – | –
NCI-H1650 | 0.589 | – | 0.553 | 0.487 | 0.545 | – | – | – | – | – | 0.383 | 0.403 | 0.426 | 0.503 | 0.368 | – | – | – | – | –
EBC-1 | 0.391 | 0.386 | 0.465 | 0.358 | 0.372 | 0.787 | 0.835 | 0.905 | 0.81 | 0.915 | – | – | – | – | – | 0.72 | 0.827 | 0.903 | 0.783 | 0.903
NCI-H1703 | 0.239 | 0.246 | 0.263 | 0.23 | 0.205 | 0.313 | 0.322 | 0.286 | 0.278 | 0.314 | – | – | – | – | – | 0.49 | – | 0.651 | 0.608 | 0.585
CAL-12T | 0.389 | 0.393 | 0.347 | 0.447 | 0.27 | 1.18 | 0.973 | 0.929 | – | 0.584 | – | – | – | – | – | 0.732 | 0.584 | 0.65 | 0.409 | 0.399
NCI-H1563 | 0.6 | 0.644 | 0.683 | 0.637 | 0.657 | 0.953 | 0.953 | 0.87 | 0.83 | 1.03 | – | – | – | – | – | 1.32 | 1.14 | 1.27 | 1.06 | 1.21
NCI-H2170 | 0.285 | 0.228 | 0.237 | 0.185 | 0.209 | 0.571 | 0.421 | 0.314 | 0.207 | 0.233 | 0.459 | 0.469 | 0.405 | 0.176 | 0.2 | – | – | – | – | –
